Source: patent US20250152719A1, “FUSED IMIDE DERIVATIVE” (Chia Tai Tianqing Pharmaceutical Group Co., Ltd., priority 2021, published 2025)

Experiments:
[1] = target: BTK (Homo sapiens (Human), UniProt Q06187); assay: BTK degradation in OCI-LY10 cells (Total-BTK HTRF kit); type: cell-based; settings: 24 (or 6) h incubation; for DC50 / BTK degradation in OCI-LY10 cells Dmax: OCI-LY10 cells; for DC50: DC50 = concentration when degradation rate reaches 50%, read-out: OCI-LY10 cell BTK degradation DC50; for Dmax: OCI-Ly10, OCI-LY10 cells; for Dmax / BTK degradation in OCI-LY10 cells Dmax: maximum degradation rate
Sequence of BTK (Q06187 whole entry): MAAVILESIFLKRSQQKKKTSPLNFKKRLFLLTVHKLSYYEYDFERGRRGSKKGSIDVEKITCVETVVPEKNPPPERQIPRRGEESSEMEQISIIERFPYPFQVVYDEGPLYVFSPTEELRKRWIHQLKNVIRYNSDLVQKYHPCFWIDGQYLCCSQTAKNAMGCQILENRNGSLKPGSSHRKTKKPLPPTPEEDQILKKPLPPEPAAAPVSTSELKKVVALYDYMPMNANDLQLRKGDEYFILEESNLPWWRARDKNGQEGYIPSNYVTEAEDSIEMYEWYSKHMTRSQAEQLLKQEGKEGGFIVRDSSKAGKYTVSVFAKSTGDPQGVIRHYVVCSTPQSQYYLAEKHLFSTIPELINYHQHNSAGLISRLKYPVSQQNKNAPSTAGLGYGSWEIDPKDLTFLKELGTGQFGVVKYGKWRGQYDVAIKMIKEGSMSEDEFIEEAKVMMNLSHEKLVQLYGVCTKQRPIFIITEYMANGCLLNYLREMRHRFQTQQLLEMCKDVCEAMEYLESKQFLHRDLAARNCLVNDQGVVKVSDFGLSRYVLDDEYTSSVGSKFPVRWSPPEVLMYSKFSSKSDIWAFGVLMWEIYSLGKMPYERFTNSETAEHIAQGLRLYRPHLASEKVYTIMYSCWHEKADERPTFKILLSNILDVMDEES
Experimental: The detection was carried out using the Total-BTK Kits (cisbio, 63ADK064PEH), and 4× Supplemented Lysis buffer was prepared using the Blocking reagent stock solution (100×) and Lysis buffer stock solution (4×). Premixed antibody solutions were prepared using the Detection buffer, Total-BTK d2 antibody, and Total-BTK Eu Cryptate antibody.
OCI-LY10 cells in a good growth state were collected and added to a centrifuge tube, adjusted to a cell density of 4.17×10^6 cells/mL, and seeded in a 384-well plate (12 μL/well). The cells were incubated overnight in a cell incubator. Compounds were added using a nanoliter pipettor such that the final concentrations of the compounds were 100 nM-0.098 nM; the addition was performed in duplicate, and meanwhile, a control was set. After another 24 (or 6) h of incubation in the cell incubator, the 4× Supplemented Lysis buffer was added at 4 μL/well to lyse the cells. After the cells were shaken for 40 min at room temperature, the Premixed antibody solutions were added at 4 μL/well, and the cells were left to stand overnight at room temperature. Fluorescence values of the cells were detected at 665 nm/620 nm using an Envision microplate reader, the four-parameter analysis was performed, the dose-response curves were fit, and DC50 (the concentration of the drug when the degradation rate reaches 50%) and Dmax (the maximum degradation rate) were calculated.

[2] = system: TMD8-BTK(C481S) cells; assay: Inhibitory activity on TMD8-BTK(C481S) cell proliferation (CCK-8); type: cell-based; settings: 72 h incubation
Experimental: TMD8-BTK(C481S) cells in a good growth state were collected and added to a centrifuge tube, adjusted to a cell density of 8×10^4 cells/mL, and seeded in a 96-well plate (100 μL/well). The cells were incubated overnight in a cell incubator. Compounds were added using a nanoliter pipettor such that the final concentrations of the compounds were 5000 nM-0.31 nM; the addition was performed in duplicate, and meanwhile, a control was set. After another 72 h of incubation in the cell incubator, 10 μL of CCK-8 (CK04, PP799) was added. After 4 h of incubation in the cell incubator, absorbance values were detected at 450 nm using an Envision microplate reader, the four-parameter analysis was performed, the dose-response curves were fit, and IC50 was calculated.

Molecule `CN1CCN([C@@H]2CCCN(c3cnc(C(N)=O)c(Nc4ccc(C5CCN(C[C@H]6CCN(c7cccc8c(C9CCC(=O)NC9=O)noc78)C6)CC5)cc4)n3)C2)C1=O` (some centres unmarked) [Compound 2] has a DC50 [1] of under 0.098 nM, a Dmax [1] of 99% and an IC50 ([2]; 72 h) of 18 nM.
Molecule `CN1CCN([C@@H]2CCCN(c3cnc(C(N)=O)c(Nc4ccc(C5CCN(C[C@H]6CCN(c7ccc8onc(C9CCC(=O)NC9=O)c8c7)C6)CC5)cc4)n3)C2)C1=O` (some centres unmarked) [Compound 4] has an IC50 ([2]; 72 h) of 27 nM.
`CN1CCN([C@@H]2CCCN(c3cnc(C(N)=O)c(Nc4ccc(C5CCC6(CC5)CN(C5CN(c7ccc8c(C9CCC(=O)NC9=O)noc8c7)C5)C6)cc4)n3)C2)C1=O` (some centres unmarked) [Compound 12] was tested, and the DC50 [1] was 0.098 nM and the “BTK degradation in OCI-LY10 cells Dmax” value [1] was 99%.
`NC(=O)c1ncc(N2CCCCC2)nc1Nc1ccc(N2CCC(N3Cc4ccc5c(C6CCC(=O)NC6=O)noc5c4C3)CC2)cc1` (centres unmarked) [Compound 31] was tested, and the Dmax [1] was over 90%.
`CN1CCN([C@@H]2CCCN(c3cnc(C(N)=O)c(Nc4ccc5c(c4)CN(CC4Cc6ccc7c(C8CCC(=O)NC8=O)noc7c6C4)C5)n3)C2)C1=O` (some centres unmarked) [Compound 45] was tested, and the “BTK degradation in OCI-LY10 cells Dmax” value [1] was over 90%.
`CN1CCN([C@@H]2CCCN(c3cnc(C(N)=O)c(Nc4ccc(C5CCC6(CC5)CC(N5CCc7ccc8c(C9CCC(=O)NC9=O)noc8c7C5)C6)cc4)n3)C2)C1=O` (some centres unmarked) [Compound 57] gave a Dmax [1] of over 90%.
`NC(=O)c1ncc(N2CCCCC2)nc1Nc1ccc(N2CCC(N3CCc4ccc5c(C6CCC(=O)NC6=O)noc5c4C3)CC2)cc1` (centres unmarked) [Compound 60] gave an IC50 ([2]; 72 h) of 9.4 nM.
Molecule `NC(=O)c1ncc(N2CCCCC2)nc1Nc1ccc(N2CCC(N3CCc4c(ccc5c(C6CCC(=O)NC6=O)noc45)C3)CC2)cc1` (centres unmarked) [Compound 61] has an IC50 ([2]; 72 h) of 13 nM.
Molecule `NC(=O)c1ncc(N2CCCCC2)nc1Nc1ccc(C2CCC(N3CCc4ccc5c(C6CCC(=O)NC6=O)noc5c4CC3)CC2)cc1` (centres unmarked) [Compound 67] has an IC50 [2] of 32 nM.
In the case of `NC(=O)c1ncc(N2CCCCC2)nc1Nc1ccc(C2CCN(C3Cc4ccc5c(C6CCC(=O)NC6=O)noc5c4C3)CC2)cc1` (centres unmarked) [Compound 70], the IC50 [2] is reported as 15 nM.
`NC(=O)c1ncc(N2CCCCC2)nc1Nc1ccc(C2CCC(CN3CCc4ccc5c(C6CCC(=O)NC6=O)noc5c4CC3)CC2)cc1` (centres unmarked) [Compound 74] gave an IC50 [2] of 23 nM.
In the case of `NC(=O)c1ncc(N2CCCCC2)nc1Nc1ccc(C2CCN(CC3Cc4ccc5c(C6CCC(=O)NC6=O)noc5c4C3)CC2)cc1` (centres unmarked) [Compound 75], the IC50 ([2]; 72 h) is reported as 9.8 nM.
In the case of `CN1CCN([C@@H]2CCCN(c3cnc(C(N)=O)c(Nc4ccc5c(c4)CCC4(CCN(CC6Cc7ccc8c(C9CCC(=O)NC9=O)noc8c7C6)CC4)O5)n3)C2)C1=O` (some centres unmarked) [Compound 78], the “BTK degradation in OCI-LY10 cells Dmax” value [1] is reported as over 90%.
`CN1CCN([C@@H]2CCCN(c3cnc(C(N)=O)c(Nc4ccc5c(c4)OC[C@H]4CN(CC6Cc7ccc8c(C9CCC(=O)NC9=O)noc8c7C6)CCN54)n3)C2)C1=O` (some centres unmarked) [Compound 86] gave a Dmax [1] of over 90%.
For `CN1CCN([C@@H]2CCCN(c3cnc(C(N)=O)c(Nc4ccc(C5CCN(C[C@H]6C[C@H](n7ccc8c9c(C%10CCC(=O)NC%10=O)noc9ccc87)C6)CC5)cc4)n3)C2)C1=O` (some centres unmarked) [Compound 98-1], the “BTK degradation in OCI-LY10 cells Dmax” value [1] was over 90%.
For `NC(=O)c1ncc(N2CCCCC2)nc1Nc1ccc(C2CCN(C[C@H]3C[C@@H](n4ccc5c6c(C7CCC(=O)NC7=O)noc6ccc54)C3)CC2)cc1` (some centres unmarked) [Compound 99-1], the “BTK degradation in OCI-LY10 cells Dmax” value [1] was over 90%.
`CN1CCN([C@@H]2CCCN(c3cnc(C(N)=O)c(Nc4ccc(C5CCN([C@H]6CC[C@@H](n7ccc8c9c(C%10CCC(=O)NC%10=O)noc9ccc87)CC6)CC5)cc4)n3)C2)C1=O` (some centres unmarked) [Compound 102-1] was tested, and the “BTK degradation in OCI-LY10 cells Dmax” value [1] was over 90%.
In the case of `CN1CCN([C@@H]2CCCN(c3cnc(C(N)=O)c(Nc4ccc(C5CCN([C@H]6CC[C@H](n7ccc8c9c(C%10CCC(=O)NC%10=O)noc9ccc87)CC6)CC5)cc4)n3)C2)C1=O` (some centres unmarked) [Compound 102-2], the DC50 [1] is reported as under 0.098 nM and the “BTK degradation in OCI-LY10 cells Dmax” value [1] is reported as 97.11%.
In the case of `NC(=O)c1ncc(N2CCCCC2)nc1Nc1ccc(C2CCN([C@H]3CC[C@H](n4ccc5c6c(C7CCC(=O)NC7=O)noc6ccc54)CC3)CC2)cc1` (some centres unmarked) [Compound 103-2], the “BTK degradation in OCI-LY10 cells Dmax” value [1] is reported as over 90%.
